Experimental data taken from US20230054379A1, “COMPOSITION AND METHOD OF TREATMENT TO SIMU[…] THE […] EFFICACY OF OPIOIDS AND REDUCE THEIR ADDICTIVE POWER” (Centro de Investigacion Y Desarrollo de Medicamentos (CIDEM), priority 2020, published 2023).
Several values for one entry are separate records, joined by “and”; a condition that tells them apart may be missing. Identical values can stand only once. Like-named read-outs stand apart in the source and are kept apart here. Marks after values point to notes of the source that are not given here.

Columns and labels:
[1] = Morphine-induced tolerance/hyperalgesia in healthy rats (von Frey filaments, electronic von Frey, hot plate, formalin test); format: in vivo, rat
Text: (NIH Publication No. 85-23, revised 1996).

[2] = General behavioral evaluation of the nervous system (placing/stepping, righting, pinna, corneal reflexes; signs of CNS depression)
[3] = Intensity of mechanical hypernociception (electronic von Frey) in CCI or sham rats after chronic morphine or saline
[4] = Histopathological study of sciatic nerve (Wallerian degeneration); details: CCI or sham rats; hematoxylin and eosin, light microscopy
[5] = Mechanical hypernociception dose-response in CCI rats (electronic von Frey, % MPE); format: in vivo, rat; details: for ED50: Rattus norvegicus, 168 h, single dose, doses given in mg/kg
[6] = Spontaneous withdrawal symptoms to morphine; format: in vivo, rat; details: JM-20 co-treatment; day 1 of withdrawal after chronic morphine
Text: In this experiment we studied some somatic behaviors and symptoms in the rat associated with spontaneous withdrawal to morphine (jumping or escape attempts, tremors, mastication, piloerection, head shaking).

[7] = Thermal hypernociception in CCI rats (Hargreaves test, % MPE); format: in vivo, rat; details: for % MPE, thermal hypernociception: first administration
[8] = 22 rpm, mean ± SEM, n = 6
Protocol: Young rats (8-10 weeks) Sprague Dawley (SD) (males, 168-240 g) from the National Center for the Production of Laboratory Animals (CENPALAB, Havana, Cuba) were used, adapted for seven days to the conditions of the laboratory. The animals were kept under an alternating cycle of light and dark every 12 h, the temperature was controlled between 25-27° C. and an EMO 1001 diet established for the laboratory animals. After the adaptation period, the animals were distributed in the different groups according to their body weights. Water and food were kept available ad libitum. […] To induce tolerance/hyperalgesia to morphine, it was administered to the animals subcutaneously (10 mg/kg, 1 mUkg, s.c.) twice a day every 12 h for 10 days or saline solution (Cao, J L et al. 2005 Pharmacol Biochem and Behay. 80: 493-503), after oral administration of JM-20 or its vehicle, carboxymethylcellulose (0.5% CMC in distilled water, 10mUkg, p.o.) 1h before. Correspondingly, the following groups were constituted: CMC-SS (n=6), CMC-MOR (n=6), JM-20-SS (n=6), JM-20 (5mg/kg)-MOR (n=6) and JM-20 (20mg/kg)-MOR (n=6).

[9] = Mechanical allodynia dose-response in CCI rats (von Frey filaments, % MPE); format: in vivo, rat; details: 7 days post-CCI
[10] = day 1, 45 min after first morphine or saline dose, 105 min after JM-20 (20 mg/kg, p.o.) or CMC
[11] = day 5, 45 min after morphine or saline, 105 min after JM-20 (20 mg/kg, p.o.) or CMC
[12] = day 1, 45 min after first dose of morphine or saline, 105 min after JM-20 (20 mg/kg, p.o.) or CMC
[13] = day 5, 45 min after morphine or saline dose, 105 min after JM-20 (20 mg/kg, p.o.) or CMC

**Q.** Which results are given for `CCOC(=O)C1=C(C)NC2=C(C=Nc3ccccc3N2)C1c1ccccc1[N+](=O)[O-]` (centres unmarked) [JM-20, 3-ethoxycarbonyl-2-methyl-4-(2-nitrophenyl)-4,11-dihydro-1H-pyrido [2,3-b] [1,5] benzodiazepine]?
**A.** Response to mechanical and thermal stimuli versus control group (CMC-SS) ([1]; JM-20-SS group, non-injured rats): did not show differences; Thermal hyperalgesia (PWL, hot plate test) ([1]; healthy rats, chronic morphine + JM-20 co-treatment, at 11 days): prevented thermal hyperalgesia; Percentage response to 4 g VFF and 15 g VFF and withdrawal threshold (Δ) ([1]; healthy rats, morphine 10 mg/kg s.c. twice a day for 10 days, JM-20 p.o. co-treatment 1 h before): significantly reduced; Nociceptive scores in the 5% formalin test ([1]; tolerant/hyperalgesic rats, day 11, test dose of morphine 5 mg/kg i.p., both phases): significantly improved nociceptive scores; Corneal reflex, % of animals showing the reflex [2, 10]: 100%; Pinna reflex, % of animals showing the reflex [2, 10]: 100%; Placing/stepping reflex, % of animals showing the reflex [2, 10]: 100%; Righting reflex, % of animals showing the reflex [2, 10]: 100%; Corneal reflex, % of animals showing the reflex [2, 11]: 100%; Pinna reflex, % of animals showing the reflex [2, 11]: 100%; Placing/stepping reflex, % of animals showing the reflex [2, 11]: 100%; Righting reflex, % of animals showing the reflex [2, 11]: 100%; Corneal reflex, % of animals showing the reflex ([2]; day 11, without medications): 100%; Pinna reflex, % of animals showing the reflex ([2]; day 11, without medications): 100%; Placing/stepping reflex, % of animals showing the reflex ([2]; day 11, without medications): 100%; Righting reflex, % of animals showing the reflex ([2]; day 11, without medications): 100%; Intensity of mechanical hypernociception, difference (Δ) of the withdrawal threshold ([3]; CCI rats, SS s/c + JM-20 10 mg/kg p.o. for 5 days, day 11 post-surgery, 6 hours after last JM-20, 10 mg/kg): 10.68±5.89 grams and 10.68 ± 5.89*≠ grams; Intensity of mechanical hypernociception, difference (Δ) of the withdrawal threshold ([3]; CCI rats, SS s/c + JM-20 10 mg/kg p.o. for 5 days, day 23 post-surgery, 12 days after discontinuation of JM-20, 10 mg/kg): 5.93±2.65 grams and 5.93 ± 2.65*≠ grams; Intensity of mechanical hypernociception, difference (Δ) of the withdrawal threshold ([3]; CCI rats, saline (SS) s/c + JM-20 10 mg/kg p.o. group, day 7 post-surgery, prior to start of treatments): 41.55 ± 1.50 grams; Qualitative histopathological changes of the sciatic nerve (Wallerian degeneration, cellularity) [4]: still exerts its neuroprotective effect; % MPE, intensity of mechanical hypernociception ([5]; JM-20 2.5 mg/kg p.o., 60 minutes after first dose, 7 days post-CCI): 32.26±4.2%; % MPE, intensity of mechanical hypernociception ([5]; JM-20 2.5 mg/kg p.o., 14 days post-CCI after repeated doses): 40.86±7.1%; % MPE, intensity of mechanical hypernociception ([5]; JM-20 5 mg/kg p.o., 60 minutes after first dose, 7 days post-CCI): 48.02±6.3%; % MPE, intensity of mechanical hypernociception ([5]; JM-20 5 mg/kg p.o., 14 days post-CCI after repeated doses): 38.13±9.4%; % MPE, intensity of mechanical hypernociception ([5]; JM-20 10 mg/kg p.o., 60 minutes after first dose, 7 days post-CCI): 39.20±7.9%; % MPE, intensity of mechanical hypernociception ([5]; JM-20 10 mg/kg p.o., 14 days post-CCI after repeated doses): 46.18±5.7%; % MPE, intensity of mechanical hypernociception ([5]; JM-20 20 mg/kg p.o., 60 minutes after first dose, 7 days post-CCI): 58.15±7.3%; % MPE, intensity of mechanical hypernociception ([5]; JM-20 20 mg/kg p.o., 14 days post-CCI after repeated doses): 55.28±8.3%; Neuroadaptations (tolerance/hyperalgesia) after repeated administration ([5]; JM-20 p.o. for 8 days, mechanical hypernociception at days 14, 15-16 post-CCI): neuroadaptations (tolerance/hyperalgesia) were not observed; ED50 ([5]; po, JM-20 p.o., 7 days post-CCI): 12.4 ± 6.4 mg/kg; Spontaneous somatic withdrawal symptoms after withdrawal of morphine [6]: significantly reduced; Effect on withdrawal thresholds in the Hargreaves test ([7]; JM-20 2.5-20 mg/kg p.o., after first administration or repeated doses at 14 days post-CCI): did not increase withdrawal thresholds significantly; Rota-rod motor performance (Latency sec) [8, 12]: 59 ± 0.5^b sec; Rota-rod motor performance (Latency sec) [8, 13]: 59 ± 0.5 s; Rota-rod motor performance (Latency sec) ([8]; day 11, without medications): 60 s; % MPE, mechanical allodynia ([9]; JM-20 2.5 mg/kg p.o., 1 h after first administration): 24.97±8.5%; % MPE, mechanical allodynia ([9]; JM-20 5 mg/kg p.o., 1 h after first administration): 50.21±7.6%; % MPE, mechanical allodynia ([9]; JM-20 10 mg/kg p.o., 1 h after first administration): 48.68±7.6%; % MPE, mechanical allodynia ([9]; JM-20 20 mg/kg p.o., 1 h after first administration): 64.25±9.7%; ED50 ([9]; Rattus norvegicus, po, 168 h, JM-20 p.o., single dose, doses given in mg/kg): 8.44 ± 1.9 mg/kg

**Q.** For `NCC1(CC(=O)O)CCCCC1` [gabapentin], which “Qualitative histopathological changes of the sciatic nerve (Wallerian degeneration, cellularity)” value [4] is on record?
**A.** The value was “decrease in these alterations”.

**Q.** What does the source list for `CN1CC[C@]23c4c5ccc(O)c4O[C@H]2[C@@H](O)C=C[C@H]3[C@H]1C5` [morphine, reference compound]?
**A.** Corneal reflex, % of animals showing the reflex [2, 10]: 100%; Pinna reflex, % of animals showing the reflex [2, 10]: 100%; Placing/stepping reflex, % of animals showing the reflex [2, 10]: 100%; Righting reflex, % of animals showing the reflex [2, 10]: 100%; Corneal reflex, % of animals showing the reflex [2, 11]: 100%; Pinna reflex, % of animals showing the reflex [2, 11]: 100%; Placing/stepping reflex, % of animals showing the reflex [2, 11]: 100%; Righting reflex, % of animals showing the reflex [2, 11]: 100%; Corneal reflex, % of animals showing the reflex ([2]; day 11, without medications): 100%; Pinna reflex, % of animals showing the reflex ([2]; day 11, without medications): 100%; Placing/stepping reflex, % of animals showing the reflex ([2]; day 11, without medications): 100%; Righting reflex, % of animals showing the reflex ([2]; day 11, without medications): 100%; Intensity of mechanical hypernociception, difference (Δ) of the withdrawal threshold ([3]; CCI rats, morphine group (vehicle p.o.), day 7 post-surgery, prior to start of treatments): 41.22±1.58 grams; Intensity of mechanical hypernociception, difference (Δ) of the withdrawal threshold ([3]; CCI rats, morphine group (vehicle p.o.), day 7 post-surgery, prior to start of treatments, listed as MOR): 41.22 ± 1.58 grams; Intensity of mechanical hypernociception, difference (Δ) of the withdrawal threshold ([3]; Sham CCI rats, morphine group, day 7 post-surgery, prior to start of treatments): 2.06 ± 2.96≠ grams; Qualitative histopathological changes of the sciatic nerve (Wallerian degeneration, cellularity) [4]: minimal increase in cellularity; ED50 ([5]; sc, morphine s.c., 7 days post-CCI): 5.63 ± 0.8 mg/kg; % MPE, intensity of mechanical hypernociception ([5]; morphine 3 mg/kg s.c., 14 days post-CCI after 8 repeated doses): 1.36±0.5%; % MPE, intensity of mechanical hypernociception ([5]; morphine 3 mg/kg s.c., first administration, 7 days post-CCI): 17.67±2.8%; % MPE, intensity of mechanical hypernociception ([5]; morphine 5 mg/kg s.c., 14 days post-CCI after 8 repeated doses): 6.10±1.0%; % MPE, intensity of mechanical hypernociception ([5]; morphine 5 mg/kg s.c., first administration, 7 days post-CCI): 48.05±2.9%; % MPE, intensity of mechanical hypernociception ([5]; morphine 10 mg/kg s.c., 14 days post-CCI after 8 repeated doses): 14.18±4.7%; % MPE, intensity of mechanical hypernociception ([5]; morphine 10 mg/kg s.c., first administration, 7 days post-CCI): 72.22±4.6%; ED50 ([7]; Rattus norvegicus, sc, 168 h, morphine s.c., single dose, 7 days post-CCI, doses given in mg/kg): 3.17 ± 0.4 mg/kg; % MPE, thermal hypernociception ([7]; morphine 3 mg/kg s.c., 7 days post-CCI): 30.0±13%; % MPE, thermal hypernociception ([7]; morphine 10 mg/kg s.c., 7 days post-CCI): 95.69±3.4%; Rota-rod motor performance (Latency sec) [8, 12]: 16 ± 1.9^a sec; Rota-rod motor performance (Latency sec) [8, 13]: 57 ± 1.8 s; Rota-rod motor performance (Latency sec) ([8]; day 11, without medications): 60 s; % MPE, mechanical allodynia ([9]; morphine 10 mg/kg s.c., first administration): 100%
